Columns and labels:
PARP1 = target: T1, PARP1 (Homo sapiens, UniProt P09874); assay: PARP1 enzyme assay (histone-coated plate, chemiluminescence); type: biochemical; settings: PARP1 0.02 nM, DNA 0.8 nM, NAD+ 3.5 µM; read-out: PARP-1 IC50
T1 construct: purchased BPS 80501
Experimental: 1.1.1. Buffer preparation: PBST: 1× PBS, 0.05% Tween-20; blocking buffer: 1× PBS, 0.05% Tween-20, 5% BSA; reaction buffer: 50 mM Tris-HCl (pH 7.5), 0.005% Tween-20, 0.01% BSA.
1.1.2. Coating: A 50 ng/mL Histone coating solution was prepared with 1× PBS and then transferred to a 384-well reaction plate at 25 µL/well. The plate was coated at 4 °C overnight.
1.1.3. Washing: After the coating was completed, the coating solution was discarded, and the plate was washed with the PBST solution. The method was as follows: PBST was transferred to the 384-well reaction plate at 50 µL/well, and the plate was left to stand for 5 min. The washing solution was then discarded, and the plate was refilled. The washing step was repeated 3 times. Finally, the reaction plate was patted dry and left for the next step of blocking.
1.1.4. Blocking: The blocking buffer was transferred to the 384-well reaction plate at 50 µL/well, and the plate was left to stand for 1 h.
Washing: After the blocking was completed, the blocking buffer was discarded, and the plate was washed 3 times with the PBST solution according to the method in step 2. Finally, the reaction plate was patted dry.
1.1.5. A 1000-fold solution of a compound was prepared and then transferred at 1 µL/well to a 96-well plate containing 199 µL of the reaction buffer. The mixture was well mixed, and then the well mixed compound solution was transferred to the 384-well reaction plate at 5 µL/well. 1.1.6. A 25/10-fold PARP1-DNA solution was prepared with the reaction buffer and then transferred to the 384-well reaction plate at 10 µL/well. For the negative control wells, 10 µL
of the DNA solution was transferred. The final concentrations of PARP1 and DNA were 0.02 nM and 0.8 nM, respectively.
1.1.9. Washing: After the reaction was completed, the reaction solution was discarded, and the plate was washed 3 times with the PBST solution according to the method in step 2. Finally, the reaction plate was patted dry.
1.1.10. A primary antibody (anti-Poly/Mono-ADP Ribose Rabbit mAb) was diluted 2000-fold with the blocking buffer and then added at 20 µL/well.
1.1.11. Washing: The primary antibody was discarded, and the plate was washed 3 times with the PBST solution according to the method in step 2. Finally, the reaction plate was patted dry.
1.1.12. A secondary antibody (anti-rabbit IgG, HRP-linked Antibody) was diluted 2000-fold with the blocking buffer and then added at 20 µL/well.
1.1.13. Washing: The secondary antibody was discarded, and the plate was washed 3 times with the PBST solution according to the method in step 2. Finally, the reaction plate was patted dry.
1.1.14. Color development: Femto-ECL Substrate A and Femto-ECL Substrate B were mixed at a ratio of 1:1, and the mixture was transferred to the 384-well reaction plate at 25 µL/well. 1.1.15. Reading: The chemiluminescence values (RLU) were measured using Envision.

[1] = system: BRCA wild-type DLD-1 cells; assay: Anti-proliferative activity against cells (CCK8): DLD-1; type: cell-based; settings: Homo sapiens, 72 h + 96 h culture
Experimental: BRCA wild-type DLD-1 cells were cultured in an RPMI-1640 medium containing 10% fetal bovine serum, 100 U/mL penicillin, and 100 µg/mL streptomycin, and incubated in an incubator with 5% saturated CO2 at 37 °C. When the cells grew to 80% confluence, they were collected, centrifuged at 300 g for 10 min, and then plated onto a 96-well plate at 1000 cells/well. After 24 h, different final concentrations (0 µM, 1 µM, and 10 µM) of PARPi were added, and the cells were cultured for another 72 h. The cells were subjected to medium exchange treatment (re-supplemented with PARPi at the same final concentrations) and then cultured for another 96 h. The 96-well plate was taken out.

[2] = system: BRCA-mutated MDA-MB-436 cells; assay: Anti-proliferative activity against cells (CCK8): MDA-MB-436; type: cell-based; settings: Homo sapiens, 72 h + 96 h culture

T1 sequence (P09874 whole entry): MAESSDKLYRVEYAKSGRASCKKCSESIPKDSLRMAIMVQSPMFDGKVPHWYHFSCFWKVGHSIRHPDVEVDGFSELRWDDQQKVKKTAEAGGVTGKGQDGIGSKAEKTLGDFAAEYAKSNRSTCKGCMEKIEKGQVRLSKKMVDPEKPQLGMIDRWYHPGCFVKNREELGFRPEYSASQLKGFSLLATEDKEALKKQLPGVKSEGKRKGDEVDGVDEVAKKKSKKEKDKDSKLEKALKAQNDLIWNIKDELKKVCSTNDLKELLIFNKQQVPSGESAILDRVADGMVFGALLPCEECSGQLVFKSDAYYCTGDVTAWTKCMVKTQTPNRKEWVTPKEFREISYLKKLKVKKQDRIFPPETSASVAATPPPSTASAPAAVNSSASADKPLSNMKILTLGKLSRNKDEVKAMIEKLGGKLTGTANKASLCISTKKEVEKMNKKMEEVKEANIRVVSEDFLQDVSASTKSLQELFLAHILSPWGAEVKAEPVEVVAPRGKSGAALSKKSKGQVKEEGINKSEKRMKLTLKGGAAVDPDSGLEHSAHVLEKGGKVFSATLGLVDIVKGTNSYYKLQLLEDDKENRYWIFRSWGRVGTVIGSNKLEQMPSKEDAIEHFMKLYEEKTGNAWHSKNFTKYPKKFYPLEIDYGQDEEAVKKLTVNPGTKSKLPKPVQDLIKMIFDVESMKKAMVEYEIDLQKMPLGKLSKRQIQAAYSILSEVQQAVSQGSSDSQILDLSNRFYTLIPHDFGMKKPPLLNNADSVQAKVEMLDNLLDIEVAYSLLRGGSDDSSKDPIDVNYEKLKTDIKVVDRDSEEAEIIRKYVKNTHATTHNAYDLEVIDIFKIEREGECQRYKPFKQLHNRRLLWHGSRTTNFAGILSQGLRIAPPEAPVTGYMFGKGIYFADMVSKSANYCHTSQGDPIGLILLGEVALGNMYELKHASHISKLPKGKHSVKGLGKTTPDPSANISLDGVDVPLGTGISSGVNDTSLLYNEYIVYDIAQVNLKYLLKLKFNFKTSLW

IC50 (PARP1) [µM]	IC50 [1] [µM]	IC50 [2] [µM]	SMILES
0.05 to 0.5	> 1	0.016	Cc1cc2c([nH]c1=O)CC(CN1CCN(c3ccc(C(=O)NC4CC4)nc3F)CC1)OC2 (stereo not drawn) [Example 41, N-Cyclopropyl-6-fluoro-5-(4-((3-methyl-2-oxo-1,5,7,8-tetrahydro-2H-pyrano[4,3-b]pyridin-7-yl)methyl)piperazin-1-yl)picolinamide]
0.05 to 0.5	> 1	0.3	CNC(=O)c1ccc(C2CCN(CC3Cc4[nH]c(=O)c(C)cc4CO3)CC2)c(F)n1 (stereo not drawn) [Example 59, 6-Fluoro-N-methyl-5-(1-((3-methyl-2-oxo-1,5,7,8-tetrahydro-2H-pyrano[4,3-b]pyridin-7-yl)methyl)piperidin-4-yl)picolinamide]
≤ 0.05	> 1	0.0028	CCc1cc2c([nH]c1=O)CC(CN1CCN(c3ccc(C(=O)Nc4cnn(C)c4)nc3F)CC1)OC2 (stereo not drawn) [Example 78, 5-(4-((3-Ethyl-2-oxo-1,5,7,8-tetrahydro-2H-pyrano[4,3-b]pyridin-7-yl)methyl)piperazin-1-yl) -6-fluoro-N-(1-methyl-1H-pyrazol-4-yl)picolinamide]
≤ 0.05	> 1	0.0015	CCc1cc2c([nH]c1=O)CC(CN1CCN(c3ccc(C(=O)NC4CC4)nc3F)CC1)OC2 (stereo not drawn) [Compound 3, N-Cyclopropyl-5-(4-((3-ethyl-2-oxo-1,5,7,8-tetrahydro-2H-pyrano[4,3-b]pyridin-7-yl)methyl)piperazin-1-yl)-6-fluoropicolinamide]
≤ 0.05	> 1	0.0035	CCc1cc2c([nH]c1=O)CC(CN1CCN(c3ccc(C(=O)NC)nc3C)CC1)OC2 (stereo not drawn) [Compound 38, 5-(4-((3-Ethyl-2-oxo-1,5,7,8-tetrahydro-2H-pyrano[4,3-b]pyridin-7-yl)methyl)piperazin-1-yl)-N,6-dimethylpicoli namide]
0.05 to 0.5	> 1	0.12	CCc1cc2c([nH]c1=O)CC(CN1CCC(c3ccc(C(=O)NC)nc3F)CC1)OC2 (stereo not drawn) [Example 60, 5-(1-((3-Ethyl-2-oxo-1,5,7,8-tetrahydro-2H-pyrano[4,3-b]pyridin-7-yl)methyl)piperidin-4-yl)-6-fluoro-N-methylpicolinamide]
≤ 0.05	> 1	0.0096	CNC(=O)c1ccc(N2CCN(CC3Cc4[nH]c(=O)c(C)cc4CO3)CC2)c(C#N)n1 (stereo not drawn) [Example 76, 6-Cyano-N-methyl-5-(4-((3-methyl-2-oxo-1,5,7,8-tetrahydro-2H-pyrano[4,3-b]pyridin-7-yl)methyl)piperazin-1-yl)picolinamide]

SMILES	IC50 (PARP1) [µM]	IC50 [1] [µM]	IC50 [2] [µM]
CNC(=O)c1ccc(C2=CCN(CC3Cc4[nH]c(=O)c(C)cc4CO3)CC2)c(Cl)n1 (stereo not drawn) [Example 70, 2-Chloro-N-methyl-1'-((3-methyl-2-oxo-1,5,7,8-tetrahydro-2H-pyrano[4,3-b]pyridin-7-yl)methyl)-1',2',3',6'-tetrahydro-[3,4'-bipyridine]-6-carboxamide]	0.05 to 0.5	> 1	0.3
CNC(=O)c1ccc(C2=CCN(C[C@H]3CCc4nc(C)c(=O)[nH]c4C3)CC2)c(F)n1 [Example 46, (S)-2-Fluoro-N-methyl-1'-((2-methyl-3-oxo-3,4,5,6,7,8-hexahydroquinoxalin-6-yl)methyl)-1', 2',3',6'-tetrahydro-[3,4'-bipyridine]-6-carboxamide]	≤ 0.05	> 1	0.0067
C=Cc1cc2c([nH]c1=O)CC(CN1CC=C(c3ccc(C(=O)NC)nc3F)CC1)OC2 (stereo not drawn) [Example 68, 2-Fluoro-N-methyl-1'-((2-oxo-3-vinyl-1,5,7,8-tetrahydro-2H-pyrano[4,3-b]pyridin-7-yl)methyl)-1',2',3',6'-tetrahydro-[3,4'-bipyridine]-6-carboxamide]	≤ 0.05	> 1	0.006

From patent publication EP4768487A1, “FUSED LACTAM RING COMPOUND AND USE THEREOF” (Chengdu Zenitar Biomedical Technology Co., Ltd., priority 2023, dated 2025)
